Test results published in patent US6818407B2, “Anti-endotoxic antimicrobial cationic peptides and methods of use therfor” (priority 1998, dated 2004).
Ends that are not written are not given here.

What was measured:
[1] = Lethal endotoxemia in galactosamine-sensitized mice; type: in vivo, CD-1 mice; conditions: peptide 200 μg intraperitoneal within 10 min of 10 μg LPS; 24 hours post injection; 5 mice per group; no peptide 100
Description: To confirm this in vivo, endotoxic shock was induced by intraperitoneal injection of 10 μg of E.coli 0111:B4 LPS in phosphate-buffered saline (PBS; pH 7.2) into galactosamine-sensitized 8- to 10- week old female CD-1 mice (5 per group). In experiments involving peptides, 200 μg in 100 μl of sterile water was injected at separate intraperitoneal sites within 10 min of LPS injection. Survival was monitored at 24 hours post injection.

[2] = system: Pseudomonas aeruginosa strain M2; assay: Protection of neutropenic CD-1 mice challenged with Pseudomonas aeruginosa; type: in vivo; parameters: Survival post bacterial challenge, surviving mice: reference not given here; conditions: for Survival (%) post bacterial challenge: PBS 8
Description: CD-1 mice were induced to be neutropenic via 3 intraperitoneal injections of cyclophosphamide ([…]) every another day. Immediately after the third administration of cyclophosphamide, the mice were challenged by intraperitoneal injection of Pseudomonas aeruginosa strain M2 (200-300 organisms/mouse). Cationic peptides (200 µg per mouse=8 mg/kg) in 100 µl buffered citrate were injected intraperitoneally at 30 min (single dose) or 30 min and 16 hrs (double dose) post bacterial challenge, respectively. The data were the average values of 2 individual experiments. PBS was used as a control. […] In general single dose protection studies gave better protection than double dose experiments.

P. aeruginosa = assay: MIC, broth microdilution assay in polypropylene microtiter trays; type: cell-based; conditions: average of three separate experiments
Description: (§1) The biological activity of the peptides can be determined by standard methods known to those of skill in the art, such as Aminimal inhibitory concentration (MIC)≅ assay described in the present examples, whereby the lowest concentration at which no change in OD is observed for a given period of time is recorded as MIC. Alternatively, Afractional inhibitory concentration (FIC)≅ is also useful for determination of synergy between the peptides of the invention, or the peptides in combination with known antibiotics. FICs are performed by checkerboard titrations of peptides in one dimension of a microtiter plate, and of antibiotics in the other dimension, for example. The FIC is calculated by looking at the impact of one antibiotic on the MIC of the other and vice versa. […] Preferably, an FIC of less than 0.5 is obtained for synergism. As used herein, FIC can be determined as follows: [formula]
(§2) A method which employed polypropylene microtiter trays in a broth microdilution assay was developed.

E. coli = assay: as above; type: cell-based; conditions: average of three separate experiments
Description: as §1, §2

S. aureus K147 = assay: as above; type: cell-based; conditions: average of three separate experiments
Description: as §1, §2

S. epidermis = assay: as above; type: cell-based; conditions: average of three separate experiments
Description: as §1, §2

S. aureus = assay: as above; type: cell-based; conditions: average of three separate experiments
Description: as §1, §2

[3] = system: Pseudomonas aeruginosa wild type (K799); type: cell-based; conditions: Mueller Hinton Broth
Description: as §1
(§3) These peptides varied in activity (Table 11), however, the C-terminally capped pleurocidin especially and its N-terminally capped lysine derivative had much better activities against a variety of bacteria including Vibrio anguillarum (Va), Aeromonas salmonicida (As), Staphylococcus epidermidis (C621), Salmonella typhimurium wild type (C587) and phoP phoQ mutant (C610), and Pseudomonas aeruginosa wild type (K799) and outer membrane barrier altered (Z61). The antimicrobial peptide CEME, a fusion peptide made from portions of an insect defensin ceropin A and the bee venom peptide melittin (Piers and Hancock, Mol. Microbiol., 12:951-8, 1994), as well as the known antibiotics polymyxin B and gentamicin were used as controls. Replacing the pleurocidin N-terminus with the dermaseptin N-terminus had no effect. Replacing pleurocidin N-terminus with the ceratoxin N-terminus reduced activity. […] Amidating the C-terminus improved antimicrobial activity. Replacing the pleurocidin C-terminus with the misgurin C-terminus had no effect.
(§4) Bacteria included Vibrio anguillarum (Va), Aeromonas salmonicida (As), Staphylococcus epidermidis (C621), Salmonella typhimurium wild type (C587) and phoP phoQ mutant (C6 10), and Pseudomonas aeruginosa wild type (K799) and outer membrane barrier altered (Z61).

[4] = system: Aeromonas salmonicida (As); type: cell-based; conditions: Mueller Hinton Broth
Description: as §1, §3, §4

[5] = system: Pseudomonas aeruginosa outer membrane barrier altered (Z61); type: cell-based; conditions: Mueller Hinton Broth
Description: as §1, §3, §4

[6] = system: Salmonella typhimurium wild type (C587); type: cell-based; conditions: Mueller Hinton Broth
Description: as §1, §3, §4

[7] = system: Salmonella typhimurium phoP phoQ mutant (C610); type: cell-based; conditions: Mueller Hinton Broth
Description: as §1, §3, §4

[8] = system: Staphylococcus epidermidis (C621); type: cell-based; conditions: Mueller Hinton Broth
Description: as §1, §3, §4

Vibrio anguillarum (Va) = type: cell-based; conditions: Mueller Hinton Broth
Description: as §1, §3, §4

Q: With CC[C@H](C)[C@H](NC(=O)CNC(=O)[C@@H](NC(=O)[C@H](CCCCN)NC(=O)[C@H](CCCCN)NC(=O)[C@H](Cc1ccccc1)NC(=O)[C@H](CC(C)C)NC(=O)[C@H](CCCCN)NC(=O)[C@H](Cc1c[nH]c2ccccc12)NC(=O)[C@@H](N)CCCCN)[C@@H](C)CC)C(=O)NCC(=O)N[C@@H](C)C(=O)N[C@H](C(=O)N[C@@H](CC(C)C)C(=O)N[C@@H](CCCCN)C(=O)N[C@H](C(=O)N[C@@H](CC(C)C)C(=O)N[C@H](C(=O)N[C@H](C(=O)NCC(=O)N[C@@H](CC(C)C)C(=O)N1CCC[C@H]1C(=O)N[C@@H](C)C(=O)N[C@@H](CC(C)C)C(=O)N[C@@H](CCCCN)C(=O)N[C@@H](CC(C)C)C(=O)N[C@H](C(=O)N[C@@H](CCCCN)C(=O)O)[C@@H](C)O)[C@@H](C)O)[C@@H](C)O)C(C)C)C(C)C [CEMA, reference compound] as the molecule, how does the “Mortality (%)” value [1] read?
A: 0%

Q: Which “Survival post bacterial challenge, surviving mice” value (“Survival post bacterial challenge” below) ([2]; single dose (200 μg per mouse i.p. at 30 min), 16 hr) does the source give for CC[C@H](C)[C@H](NC(=O)[C@H](CC(C)C)NC(=O)[C@H](C)NC(=O)[C@@H]1CCCN1C(=O)[C@H](CC(C)C)NC(=O)CNC(=O)[C@@H](NC(=O)[C@@H](NC(=O)[C@H](CC(C)C)NC(=O)[C@@H](NC(=O)[C@H](CCCCN)NC(=O)[C@H](CCCCN)NC(=O)[C@@H](NC(=O)[C@H](C)NC(=O)[C@@H](NC(=O)[C@@H](NC(=O)[C@H](CC(C)C)NC(=O)[C@H](CCCCN)NC(=O)[C@H](CCCCN)NC(=O)[C@@H](NC(=O)[C@H](Cc1ccccc1)NC(=O)[C@H](CO)NC(=O)[C@H](CCCCN)NC(=O)[C@H](Cc1c[nH]c2ccccc12)NC(=O)[C@@H](N)CCCCN)[C@@H](C)CC)[C@@H](C)O)[C@@H](C)O)C(C)C)C(C)C)[C@@H](C)O)[C@@H](C)O)C(=O)N[C@@H](CO)C(=O)O [CP-29, reference compound] here?
A: 8

Q: What about the “Survival post bacterial challenge” value ([2]; single dose, 24 hr) of the same molecule?
A: 8

Q: And the “Survival post bacterial challenge” value ([2]; single dose, 41 hr)?
A: 7

Q: And the “Survival post bacterial challenge” value ([2]; single dose, 48 hr)?
A: 6

Q: What about the “Survival post bacterial challenge” value ([2]; single dose, 64 hr) of the same molecule?
A: 4

Q: What about the “Survival (%) post bacterial challenge” value ([2]; single dose, 64 hr) of the same molecule?
A: 50%

Q: And the “Survival post bacterial challenge” value ([2]; single dose, 72 hr)?
A: 4

Q: And the “Survival (%) post bacterial challenge” value ([2]; single dose, 72 hr)?
A: 50%

Q: And the “Survival post bacterial challenge” value ([2]; single dose, 96 hr)?
A: 3

Q: What about the “Survival (%) post bacterial challenge” value ([2]; single dose, 96 hr) of the same molecule?
A: 37%

Q: And the “MIC P. aeruginosa” value (P. aeruginosa)?
A: 6 µg/mL

Q: And the “MIC E. coli” value (E. coli)?
A: 2 µg/mL

Q: And the “MIC S. aureus K147” value (S. aureus K147)?
A: 11 µg/mL

Q: What about the “MIC S. epidermis” value (S. epidermis) of the same molecule?
A: 5 µg/mL

Q: What about the “MIC S. aureus” value (S. aureus) of the same molecule?
A: 19 µg/mL

Q: With ALWKTMLKKAAHVGKHVGKAALTHYL-NH2 [P-DER] as the molecule, how does the “MIC K799” value [3] read?
A: 16 µg/mL

Q: What about the “MIC As” value [4] of the same molecule?
A: 1 µg/mL

Q: And the “MIC Z61” value [5]?
A: 8 µg/mL

Q: What about the “MIC C587” value [6] of the same molecule?
A: 4 µg/mL

Q: What about the “MIC C610” value [7] of the same molecule?
A: 0.5 µg/mL

Q: What about the “MIC C621” value [8] of the same molecule?
A: 4 µg/mL

Q: What about the “MIC Va” value (Vibrio anguillarum (Va)) of the same molecule?
A: 4 µg/mL

Q: For “KGWGSFFKKAAHVGKHVGKAALTHYL [Peptide P-1]”, which “MIC K799” value [3] is on record?
A: 32 µg/mL

Q: What about the “MIC As” value [4] of the same molecule?
A: 2 µg/mL

Q: And the “MIC Z61” value [5]?
A: 8 µg/mL

Q: What about the “MIC C587” value [6] of the same molecule?
A: 16 µg/mL

Q: What about the “MIC C610” value [7] of the same molecule?
A: <0.5 µg/mL

Q: What about the “MIC C621” value [8] of the same molecule?
A: 64 µg/mL

Q: What about the “MIC Va” value (Vibrio anguillarum (Va)) of the same molecule?
A: 16 µg/mL

Q: Which “MIC K799” value [3] does the source give for “KGWGSFFKKAAHVGKHVGKAALTHYL-NH2 [Peptide P-1-CN]” here?
A: 8 µg/mL

Q: What about the “MIC As” value [4] of the same molecule?
A: 1 µg/mL

Q: And the “MIC Z61” value [5]?
A: 2 µg/mL

Q: And the “MIC C587” value [6]?
A: 2 µg/mL

Q: And the “MIC C610” value [7]?
A: <0.5 µg/mL

Q: What about the “MIC C621” value [8] of the same molecule?
A: 2 µg/mL

Q: What about the “MIC Va” value (Vibrio anguillarum (Va)) of the same molecule?
A: 2 µg/mL

Q: What does the source list for “RQRVEELSKFSKKGAAARRRK [Peptide M-0, reference compound]”?
A: MIC K799 [3]: >64 µg/mL; MIC As [4]: >64 µg/mL; MIC Z61 [5]: >64 µg/mL; MIC C587 [6]: >64 µg/mL; MIC C610 [7]: >64 µg/mL; MIC C621 [8]: >64 µg/mL; MIC Va (Vibrio anguillarum (Va)): >64 µg/mL

Q: Which results are given for SIGSAFKKAAHVGKHVGKAALGAAARRRK [CER-M]?
A: MIC K799 [3]: >64 µg/mL; MIC As [4]: 32 µg/mL; MIC Z61 [5]: 64 µg/mL; MIC C587 [6]: >64 µg/mL; MIC C610 [7]: 8 µg/mL; MIC C621 [8]: >64 µg/mL; MIC Va (Vibrio anguillarum (Va)): >64 µg/mL

Q: What does the source list for SIGSAFKKAAHVGKHVGKAALTHYL-NH2 [P-CER]?
A: MIC K799 [3]: >64 µg/mL; MIC As [4]: 8 µg/mL; MIC Z61 [5]: >64 µg/mL; MIC C587 [6]: >64 µg/mL; MIC C610 [7]: 2 µg/mL; MIC C621 [8]: >64 µg/mL; MIC Va (Vibrio anguillarum (Va)): 64 µg/mL

Q: Which “MIC K799” value [3] does the source give for gentamicin [reference compound] here?
A: <0.5 µg/mL

Q: What about the “MIC As” value [4] of the same molecule?
A: <0.5 µg/mL

Q: And the “MIC Z61” value [5]?
A: <0.5 µg/mL

Q: What about the “MIC C587” value [6] of the same molecule?
A: <0.5 µg/mL

Q: What about the “MIC C610” value [7] of the same molecule?
A: <0.5 µg/mL

Q: What about the “MIC C621” value [8] of the same molecule?
A: 16 µg/mL

Q: What about the “MIC Va” value (Vibrio anguillarum (Va)) of the same molecule?
A: 1 µg/mL

Q: Which “MIC K799” value [3] does the source give for polymyxin B [reference compound] here?
A: <0.5 µg/mL

Q: What about the “MIC As” value [4] of the same molecule?
A: <0.5 µg/mL

Q: What about the “MIC Z61” value [5] of the same molecule?
A: <0.5 µg/mL

Q: And the “MIC C587” value [6]?
A: <0.5 µg/mL

Q: What about the “MIC C610” value [7] of the same molecule?
A: <0.5 µg/mL

Q: What about the “MIC C621” value [8] of the same molecule?
A: 16 µg/mL

Q: And the “MIC Va” value (Vibrio anguillarum (Va))?
A: 16 µg/mL
